From patent US20120083522A1, “MODULATION OF INFLAMMATORY RESPONSES BY FACTOR XI” (Isis Pharmaceuitcals, inc., priority 2009, published 2012)
In the oligonucleotide strings, read from the 5' end, every base follows the letter of its sugar. An asterisk marks phosphorothioate; unmarked linkages are phosphodiester. Other units and linkages are bracketed, terminal groups are in braces. A string of capitals states the bases alone. e = 2'-O-(2-methoxyethyl) (MOE); [5mC] = 5-methylcytosine; d = 2'-deoxy (DNA)

Assays:
[1] = system: DSS-induced colitis model; assay: Colitis Study A: colon tissue histopathology; conditions: FIG. 8, listed as Factor VII ASO
[2] = system: collagen-induced arthritis (CIA) model; assay: Arthritis Study A: collagen-induced arthritis (Example 11); type: in vivo, DBA/1J mice; conditions: DBA/1J mice, 20 mg/kg s.c. twice a week for 12 weeks
Procedure: The effect of inhibition of Factor XI and its role in fibrin accumulation in the joints leading to joint inflammation and rheumatoid arthritis was evaluated in a murine collagen-induced arthritis (CIA) model. […] Arthritis induced in mice administered collagen can be visually assessed and clinically scored as described by Marty et al. (J Clin Invest, 107:631-640, 2001) where 1 point is given for each swollen digit except the thumb (maximum, 4), 1 point is given for the tarsal or carpal joint, and 1 point is given for the metatarsal or metacarpal joint with a maximum score of […]. Each paw was graded individually, the cumulative clinical arthritic score per mouse reaching a maximum of 22 points
In a group of 15 DBA/1J mice, 20 mg/kg of ISIS 404071 was injected subcutaneously twice a week for 12 weeks. One control group of 15 mice was injected with 20 mg/kg of ISIS 403102 twice a week for 12 weeks. Two control groups of 15 mice each were injected with PBS twice a week for 12 weeks. Two weeks after the first oligonucleotide dose, type II bovine collagen (Chondrex Inc, Redmond, Wash.) was mixed with complete Freund's adjuvant, homogenized on ice and the emulsion, containing 100 μg of collagen, was injected subcutaneously at the base of the tail in the Factor XI group, the Factor VII group and one of the PBS control groups. A booster injection containing 100 μg collagen type II in incomplete Freund's adjuvant was injected subcutaneously at the base of the tail at a different injection site on day 21 after the first collagen injection in these groups.
Starting 35 days from the first collagen injection, mice in all groups were examined daily for the visual appearance of arthritis, such as swelling and stiffness, in peripheral joints. The results are presented in Table 20 (expressed as a percentage of the PBS control) and in FIGS. 1-3.
‘Incidence of CIA’ refers to the percentage of mice in each group that had CIA at day 40. The ‘percentage of paws affected’ refers to the percentage of paws out of a total of 60 paws in each group of mice that were affected with arthritis. ‘Average number of affected paws’ refers to the number of affected paws in mice that were diagnosed to have arthritis. The ‘clinical severity of CIA’ was scored as described by Marty et al. (J Clin Invest, 107:631-640, 2001) and as follows: 1 point for each swollen digit except the thumb (maximum, 4), 1 point for the tarsal or carpal joint, and 1 point for the metatarsal or metacarpal joint with a maximum score of 6 for a hindpaw and 5 for a forepaw. Each paw was graded individually, the cumulative clinical arthritic score per mouse reaching a maximum of 22 points.

[3] = system: DSS-induced colitis model; assay: Colitis Study A: DSS-induced colitis, body weight and colon length (Example 12); type: in vivo, Swiss Webb mice
Procedure: The effect of antisense oligonucleotide inhibition of Factor XI and its role in ameliorating colitis was evaluated in a dextran sulfate sodium (DSS)-induced colitis model. Administration of DSS to animals is a well known method to induce […] and has been previously described by Okayasu et al. (Gastroenterology, 1990, 98:694-702), Cooper et al. (Lab Invest, 1993, 69:238-249) and Dieleman et al. (Clin Exp Immunol, 1998, 114:385-391).
In groups of 8 Swiss Webb mice, 20 mg/kg of ISIS 404071 or ISIS 403102 were injected subcutaneously twice a week for 3 weeks. Two control groups of 8 mice each were injected with PBS twice a week for 3 weeks. After the oligonucleotide treatments, 4% DSS in water was administered ad libitum for 6 days to the experimental groups and one PBS control group.
Mice in all groups were weighed at day 0. Mice were sacrificed at the end of the study on day 7 after DSS was administered and their body weights and colon lengths were measured. Results are presented in Table 24 (expressed as a percentage of the PBS control) and FIG. 7.
Colon length was assessed in the DSS-induced colitis mice.

[4] = Tolerability in Sprague-Dawley rats: liver function (Example 23); type: in vivo; design: Albumin: unit not given here; conditions: plasma, 50 mg/kg s.c. twice per week for 6 weeks
[5] = Tolerability in CD1 mice: hematology assays (Example 21); type: in vivo; conditions: 50 mg/kg s.c. twice per week for 6 weeks
[6] = Tolerability in Sprague-Dawley rats: body and organ weights (Example 23); type: in vivo; conditions: 50 mg/kg s.c. twice per week for 6 weeks
[7] = Tolerability in Sprague-Dawley rats: kidney function (Example 23); type: in vivo
[8] = Tolerability in CD1 mice: liver function (Example 21); type: in vivo; design: Albumin: unit not given here; conditions: plasma, 50 mg/kg s.c. twice per week for 6 weeks
[9] = Tolerability in CD1 mice: body and organ weights (Example 21); type: in vivo; conditions: 50 mg/kg s.c. twice per week for 6 weeks
Procedure: Body weight was measured at the onset of the study and subsequently twice per week. The body weights of the mice are presented in Table 87 and are expressed increase in grams over the PBS control weight taken before the start of treatment. Liver, spleen, and kidney weights were measured at the end of the study, and are also presented in Table 87 as percentage of the body weight.

[10] = Tolerability in CD1 mice: kidney function (Example 21); type: in vivo; conditions: plasma, 50 mg/kg s.c. twice per week for 6 weeks
[11] = Tolerability in Sprague-Dawley rats: hematology assays (Example 23); type: in vivo; design: RBC / WBC / Neutrophil / Lymphocyte / Platelets: unit not given here; conditions: blood
[12] = system: DSS-induced colitis model; assay: Colitis Study E: weight change, colon length, stool analysis; type: in vivo, Swiss Webb mice; conditions: Colitis Study E, day 7
Procedure: (§1) Two groups 8 Swiss Webb mice were dosed with 40 mg/kg of ISIS 404071 injected subcutaneously twice a week for 3 weeks. Two control groups of 8 Swiss Webb mice were dosed with PBS subcutaneously twice a week for 3 weeks. Both the ASO treated groups and one of the control groups were then given 4% DSS in distilled water for 7 days ad libitum. One of the ASO and DSS treated groups was also given intravenous injections of 20 μg of recombinant human Factor XI protein (Haematologic Technologies Inc.) for 7 consecutive days, starting the day before DSS treatment. Mice were sacrificed at the end of the study on day 7 after DSS was administered.
Mice in all groups were weighed at day 0 and at the end of the study. […] Mice were sacrificed at the end of the study on day 7 after DSS was administered and their colon lengths were measured.

[13] = system: IFN-γ, IL-10, IL-12, IL-1β, IL-2, IL-4, IL-5, TNF-α, KC; assay: Colitis Study E: cytokine levels in colon (multiplex ELISA); type: in vivo, Swiss Webb mice; conditions: Colitis Study E, day 7
Procedure: as §1
The cytokine levels of IFN-γ, IL-10, IL-12, IL-1β, IL-2, IL-4, IL-5, TNF-α, and keratinocyte chemoattractant (KC) were measured in the colon of the mice groups at the end of the study on day 7 after DSS was administered. Colons were homogenized on ice in PBS supplemented with protease inhibitors (Sigma, St. Louis, Mo.) and extracted with rotation at 4° C. for 1 hour. After removal of insoluble material by centrifugation, colon homogenates were used for the cytokine analysis by multiplex ELISA (Mouse TH1/TH2 9-Plex Ultra-Sensitive Kit, Meso Scale Discovery, Gaithersburg, Md.) according to the manufacture's protocol. Cytokine levels in colon extracts were normalized to the protein concentration measured by protein assay kit (BioRad, Hercules, Calif.). The levels of pro-inflammatory cytokines, IFN-γ, IL-1β, IL-10, IL-2, IL-5, TNF-α, and KC were elevated by DSS administration, and were decreased by treatment with ISIS 404071.

[14] = system: soluble CD40 ligand (CD40L); assay: Colitis Study E: CD40L plasma levels; type: in vivo, Swiss Webb mice; conditions: Colitis Study E, day 7
Procedure: as §1
Plasma levels of soluble CD40 ligand (CD40L) are known to be elevated in cases of inflammatory bowel disease (Ludwiczek, O. et al., Int. J. Colorectal Disease. 2003. 18: 142-147) and may be considered a marker of intestinal inflammation. The effect of antisense inhibition of Factor XI on CD40L levels in the plasma was evaluated at the end of the study on day 7 after DSS was administered and the results are presented in Table 39. CD40L levels in plasma were measured by commercially available ELISA kits (Bender MedSystems, Vienna, Austria, eBioscience, San Diego, Calif.) according to the manufacture's protocols.

[15] = system: bradykinin; assay: Colitis Study E: bradykinin levels in colon; type: in vivo, Swiss Webb mice; conditions: Colitis Study E, day 7
Procedure: as §1
The effect of antisense inhibition of Factor XI on kinin levels in the colon was evaluated (Phoenix Pharmaceuticals, Burlingame, Calif.) at the end of the study on day 7 after DSS was administered and the results are presented in Table 40.

[16] = system: thrombin-antithrombin (TAT) complexes; assay: Colitis Study E: TAT levels; type: in vivo, Swiss Webb mice; conditions: Colitis Study E, day 7
Procedure: as §1
Mice with dextran sodium sulfate (DSS)-induced colitis have elevated level of thrombin-antithrombin (TAT) complexes in blood (Anthoni, C. et al., J. Exp. Med. 204: 1595-1601, 2007) and is also observed in patients with ulcerative colitis (Kume, K. et al., Intern Med. 2007. 46: 1323-9). The effect of antisense inhibition of Factor XI on TAT levels in the […] was evaluated (Siemens Healthcare Diagnostics, Deerfield, Ill.) at the end of the study on day 7 after DSS was administered and the results are presented in Table 38.

[17] = DSS-induced colitis, day 7, 20 mg/kg s.c. twice a week for 3 weeks, expressed as a percentage of the PBS control
[18] = increase over PBS control weight before start of treatment

CCATAGAACAGCTTCACAGG (e[5mC]*e[5mC]*eA*eT*eA*dG*dA*dA*d[5mC]*dA*dG*d[5mC]*dT*dT*d[5mC]*eA*e[5mC]*eA*eG*eG) [ISIS 403102, 5-10-5 MOE gapmer targeting murine Factor VII, reference compound]
colon histology, lesions (in words) [1]: shows the same histology as the DSS control
Average no. of paws affected ([2]; in mice diagnosed with arthritis): 1
% of paws affected ([2]; out of 60 paws per group): 19%
% of CIA ([2]; percentage of mice in group with CIA at day 40): 54%
Clinical severity of CIA ([2]; score of Marty et al., maximum 22 points): 4
body weight (in words) ([3]; Colitis Study A, FIG. 7A/7B): had a decrease in body weight
colon length (in words) ([3]; Colitis Study A, FIG. 7C): had a decrease in colon length
Body weight change [3, 17]: −7%
Colon length change [3, 17]: −34%

GGTGCACAGTTTCTGGCAGG (all C 5-methyl, all phosphorothioate, sugars by position not given here; MOE gapmer) [ISIS 413481, 5-10-5 MOE gapmer]
ALT [4]: 54 IU/L
AST [4]: 80 IU/L
Albumin [4]: 4
Bilirubin [4]: 0.22 mg/dL
HCT [5]: 45%
Hemoglobin [5]: 13 g/dL
Lymphocyte [5]: 4329 cells/μL
Monocytes [5]: 204 cells/μL
Neutrophil [5]: 1904 cells/μL
Platelets [5]: 841 10^3/μL
RBC [5]: 9 10^6/μL
WBC [5]: 7 10^3/μL
Body weight [6, 18]: 147 g
Kidney weight ([6]; percentage of the body weight): 0.9%
Liver weight ([6]; percentage of the body weight): 5%
Spleen weight ([6]; percentage of the body weight): 0.3%
creatinine [7]: 45 mg/dL
BUN ([7]; plasma): 26 mg/dL
Total urine protein ([7]; total urine samples): 148 mg/dL
Urine protein/creatinine ratio ([7]; total urine samples): 3.6
ALT [8]: 85 IU/L
AST [8]: 143 IU/L
Albumin [8]: 3.2
Bilirubin [8]: 0.18 mg/dL
Cholesterol [8]: 153 mg/dL
Body weight [9, 18]: 9 g
Kidney weight ([9]; percentage of the body weight): 1.5%
Liver weight ([9]; percentage of the body weight): 6%
Spleen weight ([9]; percentage of the body weight): 0.5%
BUN [10]: 23 mg/dL
HCT [11]: 43%
Hemoglobin [11]: 14.2 g/dL
Lymphocyte [11]: 12707
Neutrophil [11]: 1046
Platelets [11]: 552
RBC [11]: 7.5
WBC [11]: 14

recombinant Factor XI protein: recombinant human Factor XI protein (Haematologic Technologies Inc.)
colon length (in words) [12]: increase in colon length due to treatment with ISIS 404071 is eliminated
stool softness/diarrhea (in words) [12]: amelioration of diarrhea in mice treated with ISIS 404071 is eliminated
pro-inflammatory cytokine levels in colon: IFN-γ, IL-1β, IL-10, IL-2, IL-5, TNF-α, KC (in words) [13]: restoration of cytokine levels to that of the DSS treated mice
CD40L levels in plasma (in words) [14]: restoration of CD40L levels to that of the DSS treated mice
bradykinin levels (in words) [15]: restoration of bradykinin levels to that of the DSS treated mice
TAT levels (in words) [16]: near restoration of TAT levels to that of the DSS treated mice
